Data published in patent US20240423992A1, “BIOMARKERS FOR TREATING LIVER DISORDERS WITH THR-B AGONISTS AND RELATED USES” (Madrigal Pharmaceuticals, Inc., priority 2023, published 2024).

Key:
[1] = tested on: patients with Nonalcoholic Steatohepatitis; assay: Phase 3 trial in Nonalcoholic Steatohepatitis (Example 2): sex hormone levels; type: in vivo, human; details: for Estradiol (female) LS Mean Difference / Estradiol (male) LS Mean Difference / FSH (female) LS Mean Difference / FSH (male) LS Mean Difference / Free testosterone (female) LS Mean Difference / Free testosterone (male) LS Mean Difference / LH (female) LS Mean Difference / LH (male) LS Mean Difference / SHBG (female) LS Mean Difference in % CFB / SHBG (female) LS Mean Difference in CFB / SHBG (male) LS Mean Difference in % CFB / SHBG (male) LS Mean Difference in CFB / SHBG LS Mean Difference in % CFB / SHBG LS Mean Difference in CFB / Testosterone (female) LS Mean Difference / Testosterone (male) LS Mean Difference / Estradiol (female) LS Mean CFB (SE) / Estradiol (male) LS Mean CFB (SE) / FSH (female) LS Mean CFB (SE) / FSH (male) LS Mean CFB (SE) / Free testosterone (female) LS Mean CFB (SE) / Free testosterone (male) LS Mean CFB (SE) / LH (female) LS Mean CFB (SE) / LH (male) LS Mean CFB (SE) / SHBG (female) LS Mean % CFB (SE) / SHBG (female) LS Mean CFB (SE) / SHBG (male) LS Mean % CFB (SE) / SHBG (male) LS Mean CFB (SE) / SHBG LS Mean % CFB (SE) / SHBG LS Mean CFB (SE) / Testosterone (female) LS Mean CFB (SE) / Testosterone (male) LS Mean CFB (SE): Week 52
Description: A randomized, double-blind, placebo-controlled Phase 3 trial was conducted. Patients were randomly assigned to receive resmetirom 80 mg, resmetirom 100 mg, or placebo administered orally once daily. Screening biopsy results were used as baseline for histologic variables and a second biopsy was performed at Week 52.

[2] = tested on: adults with nonalcoholic fatty liver disease (NAFLD)/presumed nonalcoholic steatohepatitis (NASH); assay: 52-week Phase 3 trial (Example 1): sex hormone levels; type: in vivo, human; details: Resmetirom 80 mg DB vs Placebo DB, Week 52
Description: A 52-week randomized, double-blind, placebo-controlled Phase 3 trial was conducted to evaluate the safety and effect of resmetirom, an oral, once-daily, liver-targeted thyroid hormone receptor-β selective agonist, on multiple biomarkers in adults with nonalcoholic fatty liver disease (NAFLD)/presumed nonalcoholic steatohepatitis (NASH). Patients were randomized to three double-blind arms (100 mg resmetirom, 80 mg resmetirom, or placebo) or one open-label arm (100 mg resmetirom). Common concomitant medications across the 4 arms were antidiabetes drugs (such as glucagon-like peptide-1 receptor agonists (GLP-1 RAs), metformin, pioglitazone, and sodium/glucose cotransporter-2 inhibitors (SGLT2i)) and drugs to manage dyslipidemia (statins).
Sex hormone levels after 52 weeks of resmetirom treatment are shown in Table A. Thyroid hormone levels after 52 weeks of resmetirom treatment are reported in Table B.

CC(C)c1cc(Oc2c(Cl)cc(-n3nc(C#N)c(=O)[nH]c3=O)cc2Cl)n[nH]c1=O [Resmetirom, 2-[3,5-dichloro-4-[(6-oxo-5-propan-2-yl-1H-pyridazin-3-yl)oxy]phenyl]-3,5-dioxo-1,2,4-triazine-6-carbonitrile]
Estradiol (female) LS Mean Difference ([1]; Resmetirom 80 mg from PBO): 15.9 ng/L | Estradiol (male) LS Mean Difference ([1]; Resmetirom 80 mg from PBO): 9.0 ng/L | FSH (female) LS Mean Difference ([1]; Resmetirom 80 mg from PBO): 0.79 mIU/mL | FSH (male) LS Mean Difference ([1]; Resmetirom 80 mg from PBO): 1.1 mIU/mL | Free testosterone (female) LS Mean Difference ([1]; Resmetirom 80 mg from PBO): 0 nmol/L | Free testosterone (male) LS Mean Difference ([1]; Resmetirom 80 mg from PBO): 0.02 nmol/L | LH (female) LS Mean Difference ([1]; Resmetirom 80 mg from PBO): −0.33 mIU/mL | LH (male) LS Mean Difference ([1]; Resmetirom 80 mg from PBO): 1.8 mIU/mL | SHBG (female) LS Mean Difference in % CFB ([1]; Resmetirom 80 mg from PBO): 177.4% | SHBG (female) LS Mean Difference in CFB ([1]; Resmetirom 80 mg from PBO): 73.3 nmol/L | SHBG (male) LS Mean Difference in % CFB ([1]; Resmetirom 80 mg from PBO): 107.3% | SHBG (male) LS Mean Difference in CFB ([1]; Resmetirom 80 mg from PBO): 40.4 nmol/L | SHBG LS Mean Difference in % CFB ([1]; Resmetirom 80 mg from PBO): 148.5% | SHBG LS Mean Difference in CFB ([1]; Resmetirom 80 mg from PBO): 58.9 nmol/L | Testosterone (female) LS Mean Difference ([1]; Resmetirom 80 mg from PBO): 0.15 µg/L | Testosterone (male) LS Mean Difference ([1]; Resmetirom 80 mg from PBO): 2.2 µg/L | Estradiol (female) LS Mean CFB (SE) ([1]; Resmetirom 80 mg): 17.7 (8.0) ng/L | Estradiol (male) LS Mean CFB (SE) ([1]; Resmetirom 80 mg): 8.9 (1.3) ng/L | FSH (female) LS Mean CFB (SE) ([1]; Resmetirom 80 mg): −0.54 (0.89) mIU/mL | FSH (male) LS Mean CFB (SE) ([1]; Resmetirom 80 mg): 1.1 (0.24) mIU/mL | Free testosterone (female) LS Mean CFB (SE) ([1]; Resmetirom 80 mg): 0 (0.001) nmol/L | Free testosterone (male) LS Mean CFB (SE) ([1]; Resmetirom 80 mg): 0.04 (0.009) nmol/L | LH (female) LS Mean CFB (SE) ([1]; Resmetirom 80 mg): −0.93 (0.69) mIU/mL | LH (male) LS Mean CFB (SE) ([1]; Resmetirom 80 mg): 1.7 (0.30) mIU/mL | SHBG (female) LS Mean % CFB (SE) ([1]; Resmetirom 80 mg): 193.0 (15.3) % | SHBG (female) LS Mean CFB (SE) ([1]; Resmetirom 80 mg): 74.1 (6.0) nmol/L | SHBG (male) LS Mean % CFB (SE) ([1]; Resmetirom 80 mg): 108.0 (11.2) % | SHBG (male) LS Mean CFB (SE) ([1]; Resmetirom 80 mg): 41.9 (4.2) nmol/L | SHBG LS Mean % CFB (SE) ([1]; Resmetirom 80 mg): 157.5 (10.2) % | SHBG LS Mean CFB (SE) ([1]; Resmetirom 80 mg): 60.2 (4.0) nmol/L | Testosterone (female) LS Mean CFB (SE) ([1]; Resmetirom 80 mg): 0.15 (0.019) ug/L | Testosterone (male) LS Mean CFB (SE) ([1]; Resmetirom 80 mg): 2.6 (0.26) ug/L | Estradiol (female) LS Mean Difference ([1]; Resmetirom 100 mg from PBO): 28.8 ng/L | Estradiol (male) LS Mean Difference ([1]; Resmetirom 100 mg from PBO): 11.2 ng/L | FSH (female) LS Mean Difference ([1]; Resmetirom 100 mg from PBO): 2.0 mIU/mL | FSH (male) LS Mean Difference ([1]; Resmetirom 100 mg from PBO): 1.7 mIU/mL | Free testosterone (female) LS Mean Difference ([1]; Resmetirom 100 mg from PBO): 0 nmol/L | Free testosterone (male) LS Mean Difference ([1]; Resmetirom 100 mg from PBO): 0.01 nmol/L | LH (female) LS Mean Difference ([1]; Resmetirom 100 mg from PBO): 1.4 mIU/mL | LH (male) LS Mean Difference ([1]; Resmetirom 100 mg from PBO): 2.0 mIU/mL | SHBG (female) LS Mean Difference in % CFB ([1]; Resmetirom 100 mg from PBO): 236.2% | SHBG (female) LS Mean Difference in CFB ([1]; Resmetirom 100 mg from PBO): 93.2 nmol/L | SHBG (male) LS Mean Difference in % CFB ([1]; Resmetirom 100 mg from PBO): 173.3% | SHBG (male) LS Mean Difference in CFB ([1]; Resmetirom 100 mg from PBO): 59.3 nmol/L | SHBG LS Mean Difference in % CFB ([1]; Resmetirom 100 mg from PBO): 208.4% | SHBG LS Mean Difference in CFB ([1]; Resmetirom 100 mg from PBO): 79.4 nmol/L | Testosterone (female) LS Mean Difference ([1]; Resmetirom 100 mg from PBO): 0.19 µg/L | Testosterone (male) LS Mean Difference ([1]; Resmetirom 100 mg from PBO): 3.0 µg/L | Estradiol (female) LS Mean CFB (SE) ([1]; Resmetirom 100 mg): 30.6 (8.3) ng/L | Estradiol (male) LS Mean CFB (SE) ([1]; Resmetirom 100 mg): 11.0 (1.3) ng/L | FSH (female) LS Mean CFB (SE) ([1]; Resmetirom 100 mg): 0.63 (0.92) mIU/mL | FSH (male) LS Mean CFB (SE) ([1]; Resmetirom 100 mg): 1.7 (0.24) mIU/mL | Free testosterone (female) LS Mean CFB (SE) ([1]; Resmetirom 100 mg): 0 (0.001) nmol/L | Free testosterone (male) LS Mean CFB (SE) ([1]; Resmetirom 100 mg): 0.03 (0.009) nmol/L | LH (female) LS Mean CFB (SE) ([1]; Resmetirom 100 mg): 0.80 (0.72) mIU/mL | LH (male) LS Mean CFB (SE) ([1]; Resmetirom 100 mg): 1.9 (0.30) mIU/mL | SHBG (female) LS Mean % CFB (SE) ([1]; Resmetirom 100 mg): 251.8 (16.0) % | SHBG (female) LS Mean CFB (SE) ([1]; Resmetirom 100 mg): 94.0 (6.3) nmol/L | SHBG (male) LS Mean % CFB (SE) ([1]; Resmetirom 100 mg): 174.0 (10.9) % | SHBG (male) LS Mean CFB (SE) ([1]; Resmetirom 100 mg): 60.8 (4.1) nmol/L | SHBG LS Mean % CFB (SE) ([1]; Resmetirom 100 mg): 217.4 (10.3) % | SHBG LS Mean CFB (SE) ([1]; Resmetirom 100 mg): 80.7 (4.1) nmol/L | Testosterone (female) LS Mean CFB (SE) ([1]; Resmetirom 100 mg): 0.19 (0.020) ug/L | Testosterone (male) LS Mean CFB (SE) ([1]; Resmetirom 100 mg): 3.5 (0.25) ug/L | Change in sex hormones from baseline ([1]; in vivo): unchanged, except for SHBG increases | Estradiol (female) LSM Difference [2]: 7.1 ng/L | Estradiol (male) LSM Difference [2]: 4.8 ng/L | FSH (female) LSM Difference [2]: −1.1 IU/L | FSH (male) LSM Difference [2]: 0.2 IU/L | Free testosterone (female) LSM Difference [2]: 0.0002 µg/L | Free testosterone (male) LSM Difference [2]: 0.0115 µg/L | LH (female) LSM Difference [2]: −0.9 IU/L
